Reference: patent US12723063B2, “GIPR-agonist compounds” (Eli Lilly and Company, priority 2019, dated 2026)
*1 amine or outer side, *2 acyl side, *3 side chain or, on linkers, in order; H or OH if unused. Where a SMILES comes first, the peptide text is derived from it. Side-chain parts run from the residue outwards. [ ]: non-standard residue; d: D form. The star is where a group is joined. C20 diacid = O=C(O)CCCCCCCCCCCCCCCCCCC(=O)*; C18 diacid = O=C(O)CCCCCCCCCCCCCCCCC(=O)*; αMePhe(2-F) = C[C@](N)(Cc1ccccc1F)C(=O)O; γGlu = O=C(O)[C@H](CCC(=O)[*:2])N[*:1]; 4Pal = N[C@@H](Cc1ccncc1)C(=O)O; αMeL = CC(C)C[C@](C)(N)C(=O)O; Orn = NCCC[C@H](N)C(=O)O; AEEA = NCCOCCOCC(=O)O; Aib = CC(C)(N)C(=O)O

Key:
Test in all cases: cAMP functional assay (HTRF) in HEK293 cells in presence of 0.1% casein
Type in all cases: cell-based
[1] = biological target: T1, human GLP-1 receptor (GLP-1R) (Homo sapiens, UniProt P43220); settings: HEK293 cells expressing human GLP-1R, geometric mean, read-out: hGLP1R cAMP Rel EC50 nM (SEM, n)
T1 construct: expressed in transfected cells; host or cells: HEK293
T1 sequence (P43220 24-463): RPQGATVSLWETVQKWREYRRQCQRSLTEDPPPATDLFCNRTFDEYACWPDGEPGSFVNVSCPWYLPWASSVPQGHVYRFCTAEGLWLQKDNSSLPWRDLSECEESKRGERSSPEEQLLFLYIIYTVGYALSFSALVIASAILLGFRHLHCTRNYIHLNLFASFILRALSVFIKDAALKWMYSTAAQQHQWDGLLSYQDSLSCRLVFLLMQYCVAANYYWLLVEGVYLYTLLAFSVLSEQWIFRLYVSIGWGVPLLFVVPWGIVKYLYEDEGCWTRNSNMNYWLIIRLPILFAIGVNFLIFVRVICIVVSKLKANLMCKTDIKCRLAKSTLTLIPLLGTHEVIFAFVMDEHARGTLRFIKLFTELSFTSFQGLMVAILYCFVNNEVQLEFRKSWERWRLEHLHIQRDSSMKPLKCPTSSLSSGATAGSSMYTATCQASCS

[2] = biological target: T2, human glucagon receptor (GcgR) (Homo sapiens, UniProt P47871); settings: HEK293 cells expressing human GcgR, geometric mean, read-out: hGcgR cAMP Rel EC50 nM (SEM, n)
T2 construct: expressed in transfected cells; host or cells: HEK293
T2 sequence (P47871 26-477): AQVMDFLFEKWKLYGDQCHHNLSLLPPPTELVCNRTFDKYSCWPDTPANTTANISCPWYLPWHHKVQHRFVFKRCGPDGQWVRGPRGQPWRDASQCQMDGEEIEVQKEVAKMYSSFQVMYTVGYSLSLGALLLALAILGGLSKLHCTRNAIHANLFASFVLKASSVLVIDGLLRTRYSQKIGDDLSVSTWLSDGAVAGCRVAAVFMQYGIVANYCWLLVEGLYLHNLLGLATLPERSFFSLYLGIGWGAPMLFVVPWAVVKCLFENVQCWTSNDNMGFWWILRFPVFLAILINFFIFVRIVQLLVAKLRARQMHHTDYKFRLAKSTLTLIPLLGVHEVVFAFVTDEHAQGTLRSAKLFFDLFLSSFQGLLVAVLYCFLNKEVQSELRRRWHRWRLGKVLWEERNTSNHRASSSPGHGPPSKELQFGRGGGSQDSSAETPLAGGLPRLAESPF

[3] = biological target: T3, human glucose-dependent insulinotropic peptide receptor (GIPR) (Homo sapiens, UniProt P48546); settings: HEK293 cells expressing human GIPR, geometric mean, read-out: hGIPR cAMP Rel EC50 nM (SEM, n)
T3 construct: expressed in transfected cells; host or cells: HEK293
T3 sequence (P48546 22-466): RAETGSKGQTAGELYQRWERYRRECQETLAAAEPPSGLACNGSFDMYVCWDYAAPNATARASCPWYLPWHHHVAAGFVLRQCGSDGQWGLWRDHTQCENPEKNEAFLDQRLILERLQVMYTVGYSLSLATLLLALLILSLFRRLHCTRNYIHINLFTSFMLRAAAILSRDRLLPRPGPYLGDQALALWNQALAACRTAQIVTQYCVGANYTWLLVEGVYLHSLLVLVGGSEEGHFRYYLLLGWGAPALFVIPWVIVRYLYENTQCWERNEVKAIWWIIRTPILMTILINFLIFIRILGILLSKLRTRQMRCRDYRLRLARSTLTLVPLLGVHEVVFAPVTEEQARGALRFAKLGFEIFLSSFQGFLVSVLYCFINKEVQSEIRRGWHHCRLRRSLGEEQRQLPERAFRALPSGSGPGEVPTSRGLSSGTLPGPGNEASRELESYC

Row | SMILES | EC50 [1] | EC50 [2] | EC50 [3]
1 | CC[C@H](C)[C@H](NC(=O)[C@H](CCCN)NC(=O)[C@H](CC(=O)O)NC(=O)[C@H](CC(C)C)NC(=O)[C@](C)(CC(C)C)NC(=O)[C@@H](NC(=O)[C@H](CO)NC(=O)[C@H](Cc1ccc(O)cc1)NC(=O)[C@H](CC(=O)O)NC(=O)[C@H](CO)NC(=O)[C@@H](NC(=O)[C@H](Cc1ccccc1)NC(=O)[C@@H](NC(=O)CNC(=O)[C@H](CCC(=O)O)NC(=O)C(C)(C)NC(=O)[C@@H](N)Cc1ccc(O)cc1)[C@@H](C)O)[C@@H](C)CC)[C@@H](C)CC)C(=O)N[C@@H](Cc1c[nH]cn1)C(=O)N[C@@H](CCC(N)=O)C(=O)NC(C)(C)C(=O)N[C@@H](CCC(=O)O)C(=O)N[C@@H](Cc1ccccc1)C(=O)N[C@H](C(=O)N[C@@H](CCC(=O)O)C(=O)N[C@@H](Cc1ccc(O)cc1)C(=O)N[C@@H](CCCCNC(=O)COCCOCCNC(=O)COCCOCCNC(=O)CC[C@H](NC(=O)CCCCCCCCCCCCCCCCCCC(=O)O)C(=O)O)C(=O)N[C@@H](CC(C)C)C(=O)N[C@@H](CCC(=O)O)C(=O)N[C@H](C(=O)NCC(=O)N1CCC[C@H]1C(=O)N[C@@H](CO)C(=O)N[C@@H](CO)C(=O)NCC(=O)N[C@@H](C)C(=O)N1CCC[C@H]1C(=O)N1CCC[C@H]1C(=O)N1CCC[C@H]1C(=O)N[C@@H](CO)C(N)=O)[C@@H](C)O)C(C)C [Example 105] (H-Y[Aib]EGTFISDYSI[αMeL]LD[Orn]IHQ[Aib]EFVEYK([AEEA-AEEA-γGlu-C20 diacid])LETGPSSGAPPPS-NH2) | > 5000 nM | > 5000 nM | 0.0179 nM
2 | CC[C@H](C)[C@H](NC(=O)[C@H](CO)NC(=O)[C@H](Cc1ccc(O)cc1)NC(=O)[C@H](CC(=O)O)NC(=O)[C@H](CO)NC(=O)[C@@H](NC(=O)[C@](C)(Cc1ccccc1F)NC(=O)[C@@H](NC(=O)CNC(=O)[C@H](CCC(=O)O)NC(=O)C(C)(C)NC(=O)[C@@H](N)Cc1ccc(O)cc1)[C@@H](C)O)[C@@H](C)CC)C(=O)N[C@@H](C)C(=O)N[C@@H](CC(C)C)C(=O)N[C@@H](CC(=O)O)C(=O)N[C@@H](CCCCN)C(=O)N[C@H](C(=O)N[C@@H](Cc1c[nH]cn1)C(=O)N[C@@H](CCC(N)=O)C(=O)NC(C)(C)C(=O)N[C@@H](CC(=O)O)C(=O)N[C@@H](Cc1ccccc1)C(=O)N[C@H](C(=O)N[C@@H](CCC(=O)O)C(=O)N[C@@H](Cc1ccncc1)C(=O)N[C@@H](CCCCNC(=O)COCCOCCNC(=O)COCCOCCNC(=O)CC[C@H](NC(=O)CCCCCCCCCCCCCCCCCCC(=O)O)C(=O)O)C(=O)N[C@@H](CC(C)C)C(=O)N[C@@H](CCC(=O)O)C(=O)NCC(=O)NCC(=O)N1CCC[C@H]1C(=O)N[C@@H](CO)C(=O)N[C@@H](CO)C(=O)NCC(=O)N[C@@H](C)C(=O)N1CCC[C@H]1C(=O)N1CCC[C@H]1C(=O)N1CCC[C@H]1C(=O)N[C@@H](CO)C(N)=O)C(C)C)[C@@H](C)CC [Example 112] (H-Y[Aib]EGT[αMePhe(2-F)]ISDYSIALDKIHQ[Aib]DFVE[4Pal]K([AEEA-AEEA-γGlu-C20 diacid])LEGGPSSGAPPPS-NH2) | > 5000 nM | > 5000 nM | 0.0041 nM
3 | CC[C@H](C)[C@H](NC(=O)[C@H](CO)NC(=O)[C@H](Cc1ccc(O)cc1)NC(=O)[C@H](CC(=O)O)NC(=O)[C@H](CO)NC(=O)[C@@H](NC(=O)[C@H](Cc1ccccc1)NC(=O)[C@@H](NC(=O)CNC(=O)[C@H](CCC(=O)O)NC(=O)[C@@H](C)NC(=O)[C@@H](N)Cc1ccc(O)cc1)[C@@H](C)O)[C@@H](C)CC)C(=O)N[C@@H](CC(C)C)C(=O)N[C@@H](CC(C)C)C(=O)N[C@@H](CC(=O)O)C(=O)N[C@@H](CCCCN)C(=O)N[C@@H](CCCCNC(=O)COCCOCCNC(=O)COCCOCCNC(=O)CC[C@H](NC(=O)CCCCCCCCCCCCCCCCCCC(=O)O)C(=O)O)C(=O)N[C@@H](Cc1c[nH]cn1)C(=O)N[C@@H](CCC(N)=O)C(=O)N[C@@H](CCC(N)=O)C(=O)N[C@@H](CC(=O)O)C(=O)N[C@@H](Cc1ccccc1)C(=O)N[C@H](C(=O)N[C@@H](CC(N)=O)C(=O)N[C@@H](Cc1ccc(O)cc1)C(=O)N[C@@H](CC(C)C)C(=O)N[C@@H](CC(C)C)C(=O)N[C@@H](C)C(=O)N[C@@H](CCC(N)=O)C(=O)NCC(=O)N1CCC[C@H]1C(=O)N[C@@H](CO)C(=O)N[C@@H](CO)C(=O)NCC(=O)N[C@@H](C)C(=O)N1CCC[C@H]1C(=O)N1CCC[C@H]1C(=O)N1CCC[C@H]1C(=O)N[C@@H](CO)C(N)=O)C(C)C [Example 15] (H-Y[dA]EGTFISDYSILLDKK([AEEA-AEEA-γGlu-C20 diacid])HQQDFVNYLLAQGPSSGAPPPS-NH2) | > 100 nM | > 5000 nM | 0.282 nM
4 | CC[C@H](C)[C@H](NC(=O)[C@H](CCCN)NC(=O)[C@H](CC(=O)O)NC(=O)[C@H](CC(C)C)NC(=O)[C@](C)(CC(C)C)NC(=O)[C@@H](NC(=O)[C@H](CO)NC(=O)[C@H](Cc1ccc(O)cc1)NC(=O)[C@H](CC(=O)O)NC(=O)[C@H](CO)NC(=O)[C@@H](NC(=O)[C@H](Cc1ccccc1)NC(=O)[C@@H](NC(=O)CNC(=O)[C@H](CCC(=O)O)NC(=O)C(C)(C)NC(=O)[C@@H](N)Cc1ccc(O)cc1)[C@@H](C)O)[C@@H](C)CC)[C@@H](C)CC)C(=O)N[C@@H](Cc1c[nH]cn1)C(=O)N[C@@H](CCC(N)=O)C(=O)NC(C)(C)C(=O)N[C@@H](CC(=O)O)C(=O)N[C@@H](Cc1ccccc1)C(=O)N[C@H](C(=O)N[C@@H](CCC(=O)O)C(=O)N[C@@H](Cc1ccc(O)cc1)C(=O)N[C@@H](CCCCNC(=O)COCCOCCNC(=O)COCCOCCNC(=O)CC[C@H](NC(=O)CCCCCCCCCCCCCCCCC(=O)O)C(=O)O)C(=O)N[C@@H](CC(C)C)C(=O)N[C@@H](CCC(=O)O)C(=O)NCC(=O)NCC(=O)N1CCC[C@H]1C(=O)N[C@@H](CO)C(=O)N[C@@H](CO)C(=O)NCC(=O)N[C@@H](C)C(=O)N1CCC[C@H]1C(=O)N1CCC[C@H]1C(=O)N1CCC[C@H]1C(=O)N[C@@H](CO)C(N)=O)C(C)C [Example 103] (H-Y[Aib]EGTFISDYSI[αMeL]LD[Orn]IHQ[Aib]DFVEYK([AEEA-AEEA-γGlu-C18 diacid])LEGGPSSGAPPPS-NH2) | > 5000 nM | > 5000 nM | 0.0129 nM
5 | CC[C@H](C)[C@H](NC(=O)[C@H](Cc1ccccc1)NC(=O)[C@@H](NC(=O)CNC(=O)[C@H](CCC(=O)O)NC(=O)C(C)(C)NC(=O)[C@@H](N)Cc1ccc(O)cc1)[C@@H](C)O)C(=O)N[C@@H](CO)C(=O)N[C@@H](CC(=O)O)C(=O)N[C@@H](Cc1ccc(O)cc1)C(=O)N[C@@H](CO)C(=O)N[C@H](C(=O)N[C@@](C)(CC(C)C)C(=O)N[C@@H](CC(C)C)C(=O)N[C@@H](CC(=O)O)C(=O)N[C@@H](CCCN)C(=O)N[C@@H](CCCCNC(=O)COCCOCCNC(=O)COCCOCCNC(=O)CC[C@H](NC(=O)CCCCCCCCCCCCCCCCCCC(=O)O)C(=O)O)C(=O)N[C@@H](Cc1c[nH]cn1)C(=O)N[C@@H](CCC(N)=O)C(=O)NC(C)(C)C(=O)N[C@@H](CC(=O)O)C(=O)N[C@@H](Cc1ccccc1)C(=O)N[C@H](C(=O)N[C@@H](CCC(=O)O)C(=O)N[C@@H](Cc1ccncc1)C(=O)N[C@@H](CC(C)C)C(=O)N[C@@H](CC(C)C)C(=O)N[C@@H](CCC(=O)O)C(=O)NCC(=O)NCC(=O)N1CCC[C@H]1C(=O)N[C@@H](CO)C(=O)N[C@@H](CO)C(=O)NCC(=O)N[C@@H](C)C(=O)N1CCC[C@H]1C(=O)N1CCC[C@H]1C(=O)N1CCC[C@H]1C(=O)N[C@@H](CO)C(N)=O)C(C)C)[C@@H](C)CC [Example 82] (H-Y[Aib]EGTFISDYSI[αMeL]LD[Orn]K([AEEA-AEEA-γGlu-C20 diacid])HQ[Aib]DFVE[4Pal]LLEGGPSSGAPPPS-NH2) | > 5000 nM | 3790 nM | 0.0391 nM
6 | CC[C@H](C)[C@H](NC(=O)[C@H](Cc1ccccc1)NC(=O)[C@@H](NC(=O)CNC(=O)[C@H](CCC(=O)O)NC(=O)C(C)(C)NC(=O)[C@@H](N)Cc1ccc(O)cc1)[C@@H](C)O)C(=O)N[C@@H](CO)C(=O)N[C@@H](CC(=O)O)C(=O)N[C@@H](Cc1ccc(O)cc1)C(=O)N[C@@H](CO)C(=O)N[C@H](C(=O)N[C@@](C)(CC(C)C)C(=O)N[C@@H](CC(C)C)C(=O)N[C@@H](CC(=O)O)C(=O)N[C@@H](CCC(=O)O)C(=O)N[C@@H](CCCCNC(=O)COCCOCCNC(=O)COCCOCCNC(=O)CC[C@H](NC(=O)CCCCCCCCCCCCCCCCCCC(=O)O)C(=O)O)C(=O)N[C@@H](Cc1c[nH]cn1)C(=O)N[C@@H](CCC(N)=O)C(=O)NC(C)(C)C(=O)N[C@@H](CC(=O)O)C(=O)N[C@@H](Cc1ccccc1)C(=O)N[C@H](C(=O)N[C@@H](CCC(=O)O)C(=O)N[C@@H](Cc1ccncc1)C(=O)N[C@@H](CC(C)C)C(=O)N[C@@H](CC(C)C)C(=O)N[C@@H](C)C(=O)N[C@@H](CCC(N)=O)C(=O)NCC(=O)N1CCC[C@H]1C(=O)N[C@@H](CO)C(=O)N[C@@H](CO)C(=O)NCC(=O)N[C@@H](C)C(=O)N1CCC[C@H]1C(=O)N1CCC[C@H]1C(=O)N1CCC[C@H]1C(=O)N[C@@H](CO)C(N)=O)C(C)C)[C@@H](C)CC [Example 84] (H-Y[Aib]EGTFISDYSI[αMeL]LDEK([AEEA-AEEA-γGlu-C20 diacid])HQ[Aib]DFVE[4Pal]LLAQGPSSGAPPPS-NH2) | > 5000 nM | > 5000 nM | 0.034 nM
